# Molecular target: T1, human capsaicin receptor (Homo sapiens, UniProt Q8NER1)
# T1 construct: expressed in transfected cells
# Assay: Calcium mobilization assay, antagonist activity (Example 6)
# Type: cell-based
# Conditions: 50% decrease in fluorescence response of cells expressing human capsaicin receptor exposed to capsaicin
# Experimental: A cDNA encoding full length human capsaicin receptor (SEQ ID NO:1, 2 or 3 of U.S. Pat. No. 6,482,611) is subcloned in the plasmid pBK-CMV (Stratagene, La Jolla, Calif.) for recombinant expression in mammalian cells.
# Human embryonic kidney (HEK293) cells are transfected with the pBK-CMV expression construct encoding the full length human capsaicin receptor using standard methods. The transfected cells are selected for two weeks in media containing G418 (400 μg/ml) to obtain a pool of stably transfected cells. Independent clones are isolated from this pool by limiting dilution to obtain clonal stable cell lines for use in subsequent experiments.
# Cells transfected with expression plasmids (as described in Example 4) and thereby expressing human capsaicin receptor are seeded and grown to 70-90% confluency in FALCON black-walled, clear-bottomed 96-well plates (#3904, BECTON-DICKINSON, Franklin Lakes, N.J.). The culture medium is emptied from the 96 well plates and […] calcium sensitive dye (Molecular Probes, Eugene, Oreg.) is added to each well (dye solution: 1 mg […], 440 μL DMSO and 440 μl 20% pluronic acid in DMSO, diluted 1:250 in Krebs-Ringer HEPES (KRH) buffer (25 mM HEPES, 5 mM KCl, 0.96 mM NaH2PO4, 1 mM MgSO4, 2 mM CaCl2, 5 mM glucose, 1 mM probenecid, pH 7.4), 50 μl diluted solution per well). Plates are covered with aluminum foil and incubated at 37° C. for 1-2 hours in an environment containing 5% CO2. After the incubation, the dye is emptied from the plates, and the cells are washed once with KRH buffer, and resuspended in KRH buffer.
# To measure the ability of a test compound to agonize or antagonize a calcium mobilization response in cells expressing capsaicin receptors to capsaicin or other vanilloid agonist, the EC50 of the agonist capsaicin is first determined. An additional 20 μl of KRH buffer and 1 μl DMSO is added to each well of cells, prepared as described above. 100 μl capsaicin in KRH buffer is automatically transferred by the FLIPR instrument to each well. Capsaicin-induced calcium mobilization is monitored using either FLUOROSKAN ASCENT (Labsystems; Franklin, Mass.) or FLIPR (fluorometric imaging plate reader system; Molecular Devices, Sunnyvale, Calif.) instruments. Data obtained between 30 and 60 seconds after agonist application are used to generate an 8-point concentration response curve, with final capsaicin concentrations of 1 nM to 3 μM. KALEIDAGRAPH software (Synergy Software, Reading, Pa.) is used to fit the data to the equation: y=a*(1/(1+(b/x)^c)) to determine the 50% excitatory concentration (EC50) for the response. In this equation, y is the maximum fluorescence signal, x is the concentration of the agonist or antagonist (in this case, capsaicin), a is the Emax, b corresponds to the EC50 value and c is the Hill coefficient. Determination of Agonist Activity
# Test compounds are dissolved in DMSO, diluted in 20 μl KRH buffer so that the final concentration of test compounds in the assay well is between 1 μM and 5 μM, and added to cells prepared as described above. The 96 well plates containing prepared cells and test compounds are incubated in the dark, at room temperature for 0.5 to 6 hours. It is important that the incubation not continue beyond 6 hours. Just prior to determining the fluorescence response, 100 μl capsaicin in KRH buffer at twice the EC50 concentration determined as described above is automatically added by the FLIPR instrument to each well of the 96 well plate for a final sample volume of 200 μl and a final capsaicin concentration equal to the EC50. The final concentration of test compounds in the assay wells is between 1 μM and 5 μM. […] The concentration of antagonist required to provide a 50% decrease, relative to the response observed in the presence of capsaicin and without antagonist, is the IC50 for the antagonist, and is preferably below 1 micromolar, 100 nanomolar, 10 nanomolar or 1 nanomolar.
# T1 sequence (Q8NER1 whole entry): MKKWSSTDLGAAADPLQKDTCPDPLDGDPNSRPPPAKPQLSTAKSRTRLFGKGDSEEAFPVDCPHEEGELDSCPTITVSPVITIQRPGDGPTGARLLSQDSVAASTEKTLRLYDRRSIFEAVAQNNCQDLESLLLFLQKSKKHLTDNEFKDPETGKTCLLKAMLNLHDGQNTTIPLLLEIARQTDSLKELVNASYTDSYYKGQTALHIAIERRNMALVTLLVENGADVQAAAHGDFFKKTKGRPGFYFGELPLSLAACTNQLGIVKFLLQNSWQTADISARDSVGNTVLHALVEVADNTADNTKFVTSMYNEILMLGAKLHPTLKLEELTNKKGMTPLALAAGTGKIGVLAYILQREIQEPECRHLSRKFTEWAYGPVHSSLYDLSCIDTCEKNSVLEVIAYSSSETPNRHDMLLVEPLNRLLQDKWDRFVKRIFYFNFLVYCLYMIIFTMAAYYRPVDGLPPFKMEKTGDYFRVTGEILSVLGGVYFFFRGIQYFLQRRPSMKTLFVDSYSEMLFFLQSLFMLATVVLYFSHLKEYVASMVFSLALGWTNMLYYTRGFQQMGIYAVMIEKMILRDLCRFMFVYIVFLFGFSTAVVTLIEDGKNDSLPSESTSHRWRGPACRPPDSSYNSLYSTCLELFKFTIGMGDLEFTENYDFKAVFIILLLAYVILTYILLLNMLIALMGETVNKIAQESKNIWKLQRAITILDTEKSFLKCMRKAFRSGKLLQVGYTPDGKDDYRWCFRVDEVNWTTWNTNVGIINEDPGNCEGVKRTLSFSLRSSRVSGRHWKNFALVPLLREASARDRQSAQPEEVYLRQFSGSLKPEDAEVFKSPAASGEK
SMILES,IC50 (Table II),IC50 (Table I)
"FC(F)(F)c1ccccc1-c1ccc2c(NCCc3ccccc3)ncnc2c1 [Compound 1, N-(2-phenylethyl)-7-{2-(trifluoromethyl)phenyl]quinazolin-4-amine]",–,≤ 1000 nM
"Fc1ccccc1CCNc1ncnc2cc(-c3ncccc3C(F)(F)F)ccc12 [Compound 6, N-[2-(2-fluorophenyl)ethyl]-7-[3-(trifluoromethyl)pyridin-2-yl]quinazolin-4-amine]",–,≤ 1000 nM
"Fc1cccc(CCNc2ncnc3cc(-c4ncccc4C(F)(F)F)ccc23)c1 [Compound 7, N-[2-(3-fluorophenyl)ethyl]-7-[3-(trifluoromethyl)pyridin-2-yl]quinazolin-4-amine]",–,≤ 1000 nM
"Fc1ccc(CCNc2ncnc3cc(-c4ncccc4C(F)(F)F)ccc23)cc1 [Compound 8, N-[2-(4-fluorophenyl)ethyl]-7-[3-(trifluoromethyl)pyridin-2-yl]quinazolin-4-amine]",–,≤ 1000 nM
"COc1ccccc1CCNc1ncnc2cc(-c3ncccc3C(F)(F)F)ccc12 [Compound 9, N-[2-(2-methoxyphenyl)ethYl]-7-{3-(trifluoromethyl)pyridin-2-yl]quinazolin-4-amine]",–,≤ 1000 nM
"COc1cccc(CCNc2ncnc3cc(-c4ncccc4C(F)(F)F)ccc23)c1 [Compound 10, N-[2-(3-methoxyphenyl)ethyl]7-[3-(trifluoromethyl)pyridin-2-yl]quinazolin-4-amine]",–,≤ 1000 nM
"COc1ccc(CCNc2ncnc3cc(-c4ncccc4C(F)(F)F)ccc23)cc1 [Compound 11, N-[2-(4-methoxyphenyl)ethyl]-7-[3-(trifluoromethyl)pyridin-2-yl]quinazolin-4-amine]",–,≤ 1000 nM
"FC(F)(F)c1cccnc1-c1ccc2c(NCCc3ccccc3Cl)ncnc2c1 [Compound 12, N-[2-(2-chlorophenyl)ethyl]-7-[3-(trifluoromethyl)pyridin-2-yl]quinazolin-4-amine]",–,≤ 1000 nM
"FC(F)(F)c1cccnc1-c1ccc2c(NCCc3cccc(Cl)c3)ncnc2c1 [Compound 13, N-[2-(3-chlorophenyl)ethyl]-7-{3-(trifluoromethyl)pyridin-2-yl]quinazolin-4-amine]",–,≤ 1000 nM
"FC(F)(F)c1cccnc1-c1ccc2c(NCCc3ccc(Cl)cc3)ncnc2c1 [Compound 14, N-[2-(4-chlorophenyl)ethyl]-7-[3-(trifluoromethyl)pyridin-2-yl]quinazolin-4-amine]",–,≤ 1000 nM
"FC(F)(F)c1ccccc1CCNc1ncnc2cc(-c3ncccc3C(F)(F)F)ccc12 [Compound 15, N-{2-[2-(trifluoromethyl)phenyl]ethyl}-7-[3-(trifluoromethyl)pyridin-2-yl]quinazolin-4-amine]",–,≤ 1000 nM
"FC(F)(F)c1cccc(CCNc2ncnc3cc(-c4ncccc4C(F)(F)F)ccc23)c1 [Compound 16, N-{2-[3-(trifluoromethyl)phenyl]ethyl}-7-[3-(trifluoromethyl)pyridin-2-yl]quinazolin-4-amine]",–,≤ 1000 nM
"FC(F)(F)c1ccc(CCNc2ncnc3cc(-c4ncccc4C(F)(F)F)ccc23)cc1 [Compound 17, N-{2-[4-(trifluoromethyl)phenyl]ethyl}-7-[3-(trifluoromethyl)pyridin-2-yl]quinazolin-4-amine]",–,≤ 1000 nM

# More lines, now with the values ahead:
IC50 (Table II),IC50 (Table I),SMILES
≤ 1000 nM,–,"C[C@@H]1CN(Cc2nc(NCCc3ccccc3Cl)c3ccc(-c4ncccc4Cl)cc3n2)C[C@@H](C)O1 (stereo in doubt) [Compound 166, [2-(2-Chloro-phenyl)-ethyl]-[7-(3-chloro-pyridin-2-yl)-2-(2,6-dimethyl-morpholin-4-ylmethyl)-quinazolin-4-yl]-amine]"
–,≤ 1000 nM,"CC(CNc1ncnc2cc(-c3ncccc3C(F)(F)F)ccc12)c1ccccc1 (centres unmarked) [Compound 18, N-(2-phenylpropyl)-7-[3-(trifluoromethyl)pyridin-2-yl]quinazolin-4-amine]"
–,≤ 1000 nM,"FC(F)(F)c1cccnc1-c1ccc2c(NCCc3c(Cl)cccc3Cl)ncnc2c1 [Compound 19, N-[2-(2,6-dichlorophenyl)ethyl]-7-[3-(trifluoromethyl)pyridin-2-yl]quinazolin-4-amine]"
–,≤ 1000 nM,"FC(F)(F)c1cccnc1-c1ccc2c(NCCc3ccc(Cl)c(Cl)c3)ncnc2c1 [Compound 20, N-[2-(3,4-dichlorophenyl)ethyl]-7-[3-(trifluoromethyl)pyridin-2-yl]quinazolin-4-anmne]"
–,≤ 1000 nM,"CC(Cc1ccc(Cl)cc1)Nc1ncnc2cc(-c3ncccc3C(F)(F)F)ccc12 (centres unmarked) [Compound 21, N-[2-(4-chlorophenyl)-1-methylethyl]-7-[3-(trifluoromethyl)pyridin-2-yl]quinazolin-4-amine]"
–,≤ 1000 nM,"FC(F)(F)c1cccnc1-c1ccc2c(NCCc3ccccc3)ncnc2c1 [Compound 22, N-(2-phenylethyl)-7-[3-(trifluoromethyl)pyridin-2-yl]quinazolin-4-amine]"
–,≤ 1000 nM,"C[C@@H](CNc1ncnc2cc(-c3ncccc3C(F)(F)F)ccc12)c1ccccc1 [Compound 23, N-[(2R)~2-phenylpropyll]-7-[3-(trifluoromethyl)pyridin-2-yl]quinazolin-4-amine]"
–,≤ 1000 nM,"C[C@@H]1CN(Cc2nc(NCCc3ccccc3Cl)c3ccc(-c4ncccc4C(F)(F)F)cc3n2)C[C@H](C)O1 [Compound 24, N-[2-(2-chlorophenyl)ethyl]-2-{[(2R,6S)-2,6-dimethylmorpholin-4-yl]methyl}-7-[3-(trifluoromethyl)pyridin-2-yl]quinazolin-4-amine]"
–,≤ 1000 nM,"C[C@H](CNc1ncnc2cc(-c3ncccc3C(F)(F)F)ccc12)c1ccccc1 [Compound 25, N-[(2S)-2-phenylpropyl]-7-[3 (trifluoromethyl)pyridin-2-yl]quinazolin-4-amine]"
–,≤ 1000 nM,"Fc1cccc(F)c1CCNc1ncnc2cc(-c3ncccc3C(F)(F)F)ccc12 [Compound 26, N-[2-(2,6-difluorophenyl)ethYl]-7-[3-(trifluoromethyl)pyridin-2-yl]quinazolin-4-amine]"
–,≤ 1000 nM,"Fc1ccc(CCNc2ncnc3cc(-c4ncccc4C(F)(F)F)ccc23)cc1F [Compound 27, N-[2-(3,4-difluorophenyl)ethyl]-7-[3-(trifluoromethyl)pyridin-2-yl]quinazolin-4-amine]"
–,≤ 1000 nM,"Fc1cc(F)cc(CCNc2ncnc3cc(-c4ncccc4C(F)(F)F)ccc23)c1 [Compound 28, N-[2-(3,5-difluorophenyl)ethyl]-7-[3-(trifluoromethyl)pyridin-2-yl]quinazolin-4-amine]"
–,≤ 1000 nM,"C[C@@H]1CN(Cc2nc(NCCc3ccccc3Cl)c3ncc(-c4ncccc4Cl)cc3n2)C[C@H](C)O1 [Compound 29, N-[2-(2-chlorophenyl)ethyl]-7-(3-chloropyridin-2-yl)-2-{[(2R,6S)-2,6-dimethylmorpholin-4-yl]methyl}pyrido[3,2-d]pyrimidin-4-amine]"
–,≤ 1000 nM,"Cc1nc(NCCc2ccccc2Cl)c2ncc(-c3ncccc3Cl)cc2n1 [Compound 30, N-[2-(2-chlorophenyl)ethyl]-7-(3-chloropyridin-2-yl)-2-methylpyrido[3,2-d]pyrimidin-4-amine]"
–,≤ 1000 nM,"FC(F)(F)c1cccnc1-c1ccc2c(N[C@@H]3C[C@H]3c3ccccc3)ncnc2c1 [Compound 31, N-[(1R,2S)-2-phenylcyclopropyl]-7-[3-(trifluoromethyl)pyridin-2-yl]quinazolin-4-amine]"
–,≤ 1000 nM,"Cc1nc(NCCc2ccccc2Cl)c2ccc(-c3ncccc3C)nc2n1 [Compound 32, N-[2-(2-chlorophenyl)ethyl]-2-methyl-7-(3-methylpyridin-2-yl)pyrido[2,3-d]pyrimidin-4-amine]"

# — US20070219203A1, “Arylalkylamino-substituted quinazoline analogues” (Neurogen Corporation, priority 2004, published 2007)
